Values after ≈ are worked out from the molar mass of the structure shown. Starred links: 1 amine or outer side, 2 acyl side, 3 side chain; linkers in the order of their positions; H or OH if unused. Positions of bridges follow the written chain, without caps; N, C: chain ends. Non-standard residues stand in square brackets, D forms with d. Residues, ends and D or L forms follow the SMILES beside them. Chains are numbered I, II in the order given. Actinocin(9to1) = Cc1c2oc3c(C)ccc(C(=O)[*:1])c3nc-2c(C(=O)[*:2])c(N)c1=O; X2 = CC1CCC(C(=O)[*:2])N1[*:1]; NMeV = CN[CH](C(=O)O)C(C)C; Sar = CNCC(=O)O
Columns and labels:
[1] = tested on: B16-F10 (murine melanoma) cells; experiment: In vitro cytotoxicity, neutral red staining; type: cell-based
Procedure: (§1) BU-3292T components A and B were tested for in vitro cytotoxicity against murine and human tumor cells and for in vivo antitumor activity in mice. Actinomycin D was used as a reference compound in both in vitro and in vivo experiments. B16-F10 (murine melanoma) and Moser (human colorectal carcinoma) cells were grown to the logarithmic phase in enriched Eagle minimum essential medium (MEM) supplemented with fetal calf serum (FCS, 10%) and kanamycin (60 mcg/ml), harvested and inoculated into wells of a 96-well microtiter plate with test materials at the concentrations of 3.0×10^4 and 6.0×10^4 cells/ml, respectively. They were incubated at 37° C. in humidified atmosphere of 5% CO2 and 95% air for 72 hours. The cytotoxic activity was determined colorimetrically at 540 nm after staining viable cells with neutral red. […] Inhibitory effects of BU-3292T component A on macromolecule (DNA, RNA and protein) synthesis were determined in vitro. Cultured L1210 murine leukemia cells (5×10^5 cells/ml) were incubated with test materials at 37° C. for 15 minutes and then further incubated for 60 minutes after the addition of labelled precursor, ^3 H-thymidine, ^14 C-uridine or ^3 H-leucine, into the cultured mixtures. After washing with chilled 5% trichloroacetic acid solution, the radioactivity incorporated into the acid-insoluble fraction of the tumor cells was determined in a liquid scintillation counter. […] In vivo antitumor activities of BU-3292T components A and B were tested in tumor-bearing female CDF mice. After the intraperitoneal implantation of diluted ascitic fluid with 1.0 ×10^6 lymphocytic leukemia P388 cells into the mice, test compounds were administered intraperitoneally once a day on days 1, 2 and 3 (QD×3).

[2] = tested on: Moser (human colorectal carcinoma) cells; experiment: In vitro cytotoxicity, neutral red staining; type: cell-based; conditions: 72 hours
Procedure: as §1

[3] = Body weight change in P388-bearing mice; conditions: QD × 3, ip
Procedure: as §1

[4] = tested on: lymphocytic leukemia P388; experiment: Antitumor activity against P388 leukemia (ip); type: in vivo, mice; conditions: for MST (Median survival time) / T/C: QD × 3, ip
Procedure: as §1

[5] = tested on: gram-negative bacteria; experiment: Antimicrobial activity, agar dilution, summary in words; type: cell-based; conditions: summary of Table 6
Procedure: (§2) The antimicrobial activity of BU-3292T A and B was determined against aerobic and anaerobic bacteria and fungi by a serial two-fold agar dilution method. BU-3292T A and B are active against aerobic gram-positive bacteria, and weakly active against anaerobic gram-negative bacteria and fungi.

[6] = tested on: aerobic gram-positive bacteria; experiment: as above; type: cell-based; conditions: summary of Table 6
Procedure: as §2

[7] = tested on: anaerobic gram-negative bacteria and fungi; experiment: as above; type: cell-based; conditions: summary of Table 6
Procedure: as §2

[8] = tested on: Clostridium perfringens A9635; type: cell-based; conditions: GAM agar
[9] = Solubility; type: physicochemical
From the text: BU-3292T A is isolated as a white amorphous powder, while BU-3292T B is an orange-red powder. […] The compounds give positive responses to iodine and Rydone-Smith reagents, but negative responses to Sakaguchi, ferric chloride, ninhydrin and anthrone reagents. […] The IR spectra of BU-3292T A and B are illustrated in FIGS. 1 and 2, respectively.

[10] = tested on: Pseudomonas aeruginosa A9930; experiment: Antimicrobial activity, serial two-fold agar dilution method; type: cell-based; conditions: Nutrient agar
Procedure: as §2

[11] = tested on: Escherichia coli NIHJ; experiment: as above; type: cell-based; conditions: Nutrient agar
Procedure: as §2

[12] = tested on: Staphylococcus aureus 209P; experiment: as above; type: cell-based; conditions: Nutrient agar
Procedure: as §2

[13] = tested on: Micrococcus luteus 1001; experiment: as above; type: cell-based; conditions: Nutrient agar
Procedure: as §2

[14] = tested on: Fusarium moniliforme A2284; experiment: as above; type: cell-based; conditions: Sabouraud dextrose agar
Procedure: as §2

[15] = tested on: Clostridium difficile A21675; experiment: as above; type: cell-based; conditions: GAM agar
Procedure: as §2

[16] = tested on: Propionibacterium anaerobius A21905; experiment: as above; type: cell-based; conditions: GAM agar
Procedure: as §2

[17] = tested on: Bacteroides fragilis A22693; experiment: as above; type: cell-based; conditions: GAM agar
Procedure: as §2

[18] = tested on: Candida albicans IAM 4888; experiment: as above; type: cell-based; conditions: Sabouraud dextrose agar
Procedure: as §2

[19] = tested on: Aspergillus fumigatus IAM 2530; experiment: as above; type: cell-based; conditions: Sabouraud dextrose agar
Procedure: as §2

[20] = tested on: Klebsiella pneumoniae D11; experiment: as above; type: cell-based; conditions: Nutrient agar
Procedure: as §2

[21] = tested on: Proteus mirabilis A9554; experiment: as above; type: cell-based; conditions: Nutrient agar
Procedure: as §2

[22] = tested on: Proteus vulgalis A9436; experiment: as above; type: cell-based; conditions: Nutrient agar
Procedure: as §2

[23] = tested on: Cryptococcus neoformans IAM 4519; experiment: as above; type: cell-based; conditions: Sabouraud dextrose agar
Procedure: as §2

[24] = tested on: Staphylococcus aureus smith; experiment: as above; type: cell-based; conditions: Nutrient agar
Procedure: as §2

[25] = tested on: Mucor spinosus IFO 5317; experiment: as above; type: cell-based
Procedure: as §2

[26] = tested on: Bacillus subtilis PCI-219; experiment: as above; type: cell-based; conditions: Nutrient agar
Procedure: as §2

[27] = tested on: Streptococcus pyogenes A20201; experiment: as above; type: cell-based; conditions: Nutrient agar
Procedure: as §2

[28] = tested on: Streptococcus faecalis A9612; experiment: as above; type: cell-based; conditions: Nutrient agar
Procedure: as §2

[29] = tested on: Propionibacterium acnes A21933; experiment: as above; type: cell-based; conditions: GAM agar
Procedure: as §2

[30] = tested on: Staphylococcus epidermidis D153; experiment: as above; type: cell-based; conditions: Nutrient agar
Procedure: as §2

[31] = tested on: Trichophyton mentagrophytes D155; experiment: as above; type: cell-based; conditions: Sabouraud dextrose agar
Procedure: as §2

With `Cc1c2oc3c(C)ccc(C(=O)NC4C(=O)NC(C(C)C)C(=O)N5C(C)CCC5C(=O)N(C)CC(=O)N(C)C(C(C)C)C(=O)OC4C)c3nc-2c(C(=O)NC2C(=O)NC(C(C)C)C(=O)N3C(C)CCC3C(=O)N(C)CC(=O)N(C)C(C(C)C)C(=O)OC2C)c(N)c1=O` (centres unmarked) [BU-3292T B] (I: TV[X2][Sar][NMeV] / II: TV[X2][Sar][NMeV]; ester I:1-I:C, II:1-II:C; linker I:N-II:N via Actinocin(9to1); configuration not given here) the IC50 ([1]; B16-F10, 72 hours) was < 0.00016 µg/mL, the “times stronger against B16-F10 cells than against Moser cells” value ([1]; cytotoxic activity, B16-F10 versus Moser) was ~400 times and the IC50 [2] was 0.06 µg/mL (≈ 0.0467 µM). For the same compound, the “Body weight change on day 4” value ([3]; 0.003 mg/kg/day) was “+1.0 g”, the “Body weight change on day 4” value ([3]; 0.01 mg/kg/day) was “+1.0 g” and the “Body weight change on day 4” value ([3]; 0.03 mg/kg/day) was “+1.0 g”. For the same compound, the “Body weight change on day 4” value ([3]; 0.1 mg/kg/day) was -1.0 g, the “Body weight change on day 4” value ([3]; 0.3 mg/kg/day) was -3.3 g and the “MST (Median survival time)” value ([4]; 0.003 mg/kg/day) was 11.0 days. The T/C ([4]; 0.003 mg/kg/day) was 110%, the “MST (Median survival time)” value ([4]; 0.01 mg/kg/day) was 12.0 days and the T/C ([4]; 0.01 mg/kg/day) was 120%. For the same compound, the “MST (Median survival time)” value ([4]; 0.03 mg/kg/day) was 14.0 days, the T/C ([4]; 0.03 mg/kg/day) was 140% and the “MST (Median survival time)” value ([4]; 0.1 mg/kg/day) was 16.0 days. For the same compound, the T/C ([4]; 0.1 mg/kg/day) was 160%, the “MST (Median survival time)” value ([4]; 0.3 mg/kg/day) was 8.0 days and the T/C ([4]; 0.3 mg/kg/day) was 80%. The “MST (Median survival time)” value ([4]; 1 mg/kg/day) was “Tox”, the T/C ([4]; 1 mg/kg/day) was “Tox” and the “maximum T/C value” ([4]; anti-P388 leukemic activity, QD×3, ip) was 160%. For the same compound, the “activity against gram-negative bacteria” value [5] was “inactive”, the “activity against aerobic gram-positive bacteria” value [6] was “active” and the “activity against anaerobic gram-negative bacteria and fungi” value [7] was “weakly active”. The MIC [8] was 25 µg/mL (≈ 19.5 µM), the “solubility in dimethyl sulfoxide, dimethylformamide, methanol, ethyl acetate and chloroform” value ([9]; dimethyl sulfoxide, dimethylformamide, methanol, ethyl acetate, chloroform) was “readily soluble” and the “solubility in water and other organic solvents” value ([9]; water and other organic solvents) was “insoluble”. For the same compound, the MIC [10] was > 100 µg/mL, the MIC [11] was > 100 µg/mL and the MIC [12] was 1.6 µg/mL (≈ 1.25 µM). The MIC [13] was 0.4 µg/mL (≈ 0.312 µM), the MIC [14] was 50 µg/mL (≈ 39 µM) and the MIC [15] was > 100 µg/mL. The MIC [16] was 6.3 µg/mL (≈ 4.91 µM), the MIC [17] was > 100 µg/mL and the MIC [18] was > 100 µg/mL. For the same compound, the MIC [19] was > 100 µg/mL, the MIC [20] was 100 µg/mL (≈ 77.9 µM) and the MIC [21] was > 100 µg/mL. For the same compound, the MIC [22] was > 100 µg/mL, the MIC [23] was > 100 µg/mL and the MIC [24] was 1.6 µg/mL (≈ 1.25 µM). The MIC ([25]; Mucor spinosus IFO 5317, Sabouraud dextrose agar) was 25 µg/mL (≈ 19.5 µM), the MIC ([25]; in vitro against Mucor spinosus IF05317) was 25 µg/mL (≈ 19.5 µM) and the MIC [26] was 0.8 µg/mL (≈ 0.623 µM). The MIC [27] was 0.8 µg/mL (≈ 0.623 µM), the MIC [28] was 0.8 µg/mL (≈ 0.623 µM) and the MIC [29] was 12.5 µg/mL (≈ 9.74 µM). For the same compound, the MIC [30] was 1.6 µg/mL (≈ 1.25 µM) and the MIC [31] was > 100 µg/mL.

From patent publication US5114920A, “BU-3292T antibiotics” (priority 1988, dated 1992)
